Measured values as given in ChEMBL document CHEMBL5143607, “Discovery and structure-activity relationships of a novel oxazolidinone class of bacterial type II topoisomerase inhibitors” (Bioorg Med Chem Lett, 2022).
pIC50: −log10 of the molar value. Converted amounts (≈) assume the structure as drawn.

Tests used:
Acinetobacter baumannii = experiment: Antibacterial activity against Acinetobacter baumannii NCTC 13420 assessed as bacterial growth inhibition by CLSI protocol based assay; assay type: functional
Klebsiella pneumoniae = experiment: Antibacterial activity against Klebsiella pneumoniae ATCC 700603 assessed as bacterial growth inhibition by CLSI protocol based assay; assay type: functional
Pseudomonas aeruginosa = experiment: Antibacterial activity against Pseudomonas aeruginosa ATCC 27853 assessed as bacterial growth inhibition by CLSI protocol based assay; assay type: functional
Escherichia coli [1] = experiment: Antibacterial activity against Escherichia coli W4573 assessed as bacterial growth inhibition by CLSI protocol based assay; assay type: functional
Escherichia coli [2] = experiment: Antibacterial activity against Escherichia coli N43 assessed as bacterial growth inhibition by CLSI protocol based assay; assay type: functional
Staphylococcus aureus = experiment: Antibacterial activity against Staphylococcus aureus ATCC 29213 assessed as bacterial growth inhibition by CLSI protocol based assay; assay type: functional
hERG (KCNH2) = hERG (KCNH2) (Homo sapiens, UniProt Q12809); experiment: Inhibition of human ERG at 100 uM by Ionworks electrophysiology assay; assay type: toxicity
[3] = Lipophilicity, logD of the compound by shake flask assay; assay type: physicochemical; settings: octanol/water
[4] = Cytotoxicity against human HepG2 cells assessed as reduction in cell viability for 24 hrs by Celltiter-Glo assay; assay type: toxicity, cell-based
[5] = molecular target: Voltage-gated inwardly rectifying potassium channel KCNH2 (Homo sapiens, UniProt Q12809); experiment: Inhibition of human ERG by Ionworks electrophysiology assay; assay type: toxicity
[6] = Protein binding in human plasma by equilibrium dialysis assay; assay type: ADME, cell-free; settings: read-out: PPB (converted)
DNA gyrase = DNA gyrase (Escherichia coli, UniProt P0AES4+P0AES6); experiment: Inhibition of Escherichia coli DNA gyrase supercoiling activity; assay type: protein-complex assay
[7] = Inhibition of Escherichia coli topoisomerase 4 assessed as reduction in decatenation
[8] = Intrinsic clearance in mouse liver microsomes in presence of NADPH and measured upto 45 mins; assay type: ADME, Microsome; settings: read-out: CLH
[9] = Intrinsic clearance in human liver microsomes in presence of NADPH and measured upto 45 mins; assay type: ADME, Microsome; settings: read-out: CLH
[10] = Plasma protein binding in mouse assessed as free fraction by equilibrium dialysis assay; assay type: ADME, cell-free
[11] = molecular target: DNA topoisomerase 2-alpha (Homo sapiens, UniProt P11388); experiment: Inhibition of human topoisomerase 2 assessed as reduction in decatenation
Chain of DNA topoisomerase 2-alpha (P11388 whole entry): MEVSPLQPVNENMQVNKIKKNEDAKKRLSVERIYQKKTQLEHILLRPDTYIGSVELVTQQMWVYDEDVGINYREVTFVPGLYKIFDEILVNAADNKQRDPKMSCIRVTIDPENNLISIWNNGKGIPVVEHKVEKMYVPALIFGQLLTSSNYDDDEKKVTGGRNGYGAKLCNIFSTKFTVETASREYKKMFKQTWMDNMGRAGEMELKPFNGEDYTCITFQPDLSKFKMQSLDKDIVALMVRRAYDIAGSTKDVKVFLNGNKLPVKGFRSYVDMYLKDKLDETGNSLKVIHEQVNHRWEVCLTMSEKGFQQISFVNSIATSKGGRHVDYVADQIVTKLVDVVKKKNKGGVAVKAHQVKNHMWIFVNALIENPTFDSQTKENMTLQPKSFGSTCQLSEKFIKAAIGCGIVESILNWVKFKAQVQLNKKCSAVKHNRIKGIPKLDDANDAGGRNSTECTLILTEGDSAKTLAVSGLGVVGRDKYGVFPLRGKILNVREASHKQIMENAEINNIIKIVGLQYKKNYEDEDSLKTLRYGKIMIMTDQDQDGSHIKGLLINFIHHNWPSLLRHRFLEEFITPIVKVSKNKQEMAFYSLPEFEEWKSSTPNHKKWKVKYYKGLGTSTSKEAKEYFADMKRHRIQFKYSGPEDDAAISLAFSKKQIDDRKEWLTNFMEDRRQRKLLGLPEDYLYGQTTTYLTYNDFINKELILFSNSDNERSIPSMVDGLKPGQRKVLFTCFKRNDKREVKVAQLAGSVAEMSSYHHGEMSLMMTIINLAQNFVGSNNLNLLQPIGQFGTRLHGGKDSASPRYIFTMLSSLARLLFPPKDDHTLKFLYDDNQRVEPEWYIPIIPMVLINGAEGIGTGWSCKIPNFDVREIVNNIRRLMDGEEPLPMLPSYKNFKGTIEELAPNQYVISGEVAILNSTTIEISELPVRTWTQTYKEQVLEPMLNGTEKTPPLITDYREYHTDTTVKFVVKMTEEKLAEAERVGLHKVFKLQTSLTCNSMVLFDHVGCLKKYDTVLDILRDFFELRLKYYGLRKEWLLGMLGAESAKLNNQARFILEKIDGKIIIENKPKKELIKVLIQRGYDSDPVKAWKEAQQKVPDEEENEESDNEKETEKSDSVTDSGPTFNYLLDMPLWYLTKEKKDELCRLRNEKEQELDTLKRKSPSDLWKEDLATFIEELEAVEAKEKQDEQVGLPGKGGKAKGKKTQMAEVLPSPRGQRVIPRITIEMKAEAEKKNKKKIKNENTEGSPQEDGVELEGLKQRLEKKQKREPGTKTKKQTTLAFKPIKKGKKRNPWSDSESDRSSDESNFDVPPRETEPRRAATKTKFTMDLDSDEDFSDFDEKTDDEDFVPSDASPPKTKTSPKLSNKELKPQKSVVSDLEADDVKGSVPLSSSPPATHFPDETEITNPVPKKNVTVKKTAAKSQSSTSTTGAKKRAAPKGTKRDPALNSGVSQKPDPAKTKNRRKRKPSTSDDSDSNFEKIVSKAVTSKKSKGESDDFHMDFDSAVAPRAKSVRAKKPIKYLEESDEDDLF

Chain of hERG (KCNH2) (Q12809 whole entry): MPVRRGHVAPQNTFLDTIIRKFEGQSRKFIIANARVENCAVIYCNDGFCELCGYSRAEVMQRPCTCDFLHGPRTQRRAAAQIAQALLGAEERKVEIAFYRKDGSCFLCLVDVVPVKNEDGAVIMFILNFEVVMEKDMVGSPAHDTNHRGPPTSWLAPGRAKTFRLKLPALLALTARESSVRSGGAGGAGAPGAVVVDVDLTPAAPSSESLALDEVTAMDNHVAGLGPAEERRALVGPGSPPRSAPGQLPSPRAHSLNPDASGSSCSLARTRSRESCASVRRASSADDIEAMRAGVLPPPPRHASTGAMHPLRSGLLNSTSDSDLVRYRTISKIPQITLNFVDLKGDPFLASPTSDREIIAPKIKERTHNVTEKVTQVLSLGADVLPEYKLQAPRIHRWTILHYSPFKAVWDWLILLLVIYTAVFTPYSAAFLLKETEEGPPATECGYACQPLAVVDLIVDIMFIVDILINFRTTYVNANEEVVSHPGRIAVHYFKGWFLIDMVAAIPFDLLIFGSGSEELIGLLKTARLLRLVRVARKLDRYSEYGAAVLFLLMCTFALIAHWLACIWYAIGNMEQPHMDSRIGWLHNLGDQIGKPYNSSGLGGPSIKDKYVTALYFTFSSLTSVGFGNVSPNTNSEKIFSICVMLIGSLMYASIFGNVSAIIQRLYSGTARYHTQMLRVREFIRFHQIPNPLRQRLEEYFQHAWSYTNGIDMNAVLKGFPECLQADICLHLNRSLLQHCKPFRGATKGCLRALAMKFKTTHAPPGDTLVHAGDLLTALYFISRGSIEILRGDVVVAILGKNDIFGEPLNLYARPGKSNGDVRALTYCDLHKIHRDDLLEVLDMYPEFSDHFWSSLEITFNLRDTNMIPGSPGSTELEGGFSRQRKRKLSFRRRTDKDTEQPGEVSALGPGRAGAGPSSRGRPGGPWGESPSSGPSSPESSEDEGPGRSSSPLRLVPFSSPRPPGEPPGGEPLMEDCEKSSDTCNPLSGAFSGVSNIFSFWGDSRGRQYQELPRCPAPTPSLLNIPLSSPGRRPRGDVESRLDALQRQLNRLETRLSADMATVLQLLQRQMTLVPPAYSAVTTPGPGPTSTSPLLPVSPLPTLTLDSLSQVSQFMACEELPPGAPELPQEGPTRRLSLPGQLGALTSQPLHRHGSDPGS
Chain of Voltage-gated inwardly rectifying potassium channel KCNH2 (Q12809 whole entry): as above

Q: With `O=C1COc2ccc(N3C(=O)O[C@H]4C[C@@H](NCCn5c(=O)ccc6ccc(C(=O)O)cc65)CC[C@@H]43)nc2N1` as the molecule, how does the MIC (Acinetobacter baumannii) read?
A: Its MIC is > 64 µg/mL.

Q: And the MIC (Klebsiella pneumoniae)?
A: The MIC was > 64 µg/mL.

Q: What about the MIC (Pseudomonas aeruginosa) of the same molecule?
A: The MIC was > 64 µg/mL.

Q: What about the MIC (Escherichia coli [1]) of the same molecule?
A: The MIC was > 64 µg/mL.

Q: What about the MIC (Escherichia coli [2]) of the same molecule?
A: The MIC was 16 µg/mL (≈ 30.8 µM).

Q: And the MIC (Staphylococcus aureus)?
A: The MIC was > 64 µg/mL.

Q: What about the inhibition at 100 µM (hERG (KCNH2)) of the same molecule?
A: The inhibition at 100 µM was 33%.

Q: What about the logD [3] of the same molecule?
A: Its logD is < 0.2.

Q: Which results are given for `COc1ccc2ccc(=O)n(CCCN[C@H]3CC[C@H]4[C@H](C3)OC(=O)N4c3ccc4c(n3)NC(=O)CO4)c2n1`?
A: IC50 at 24 h [4]: 40 µg/mL (≈ 76.8 µM); MIC (Acinetobacter baumannii): 0.06 µg/mL (≈ 0.115 µM); MIC (Klebsiella pneumoniae): 8 µg/mL (≈ 15.4 µM); MIC (Pseudomonas aeruginosa): 4 µg/mL (≈ 7.68 µM); MIC (Escherichia coli [1]): 0.25 µg/mL (≈ 0.48 µM); MIC (Escherichia coli [2]): ≤ 0.002 µg/mL; MIC (Staphylococcus aureus): 0.015 µg/mL (≈ 0.0288 µM); inhibition at 100 µM (hERG (KCNH2)): 97%; logD [3]: 1.61

Q: For `COc1ccc2ccc(=O)n(CCN[C@H]3CC[C@H]4[C@H](C3)OC(=O)N4c3ncc4c(n3)NC(=O)CO4)c2n1`, which IC50 at 24 h [4] is on record?
A: The IC50 at 24 h was > 128 µg/mL.

Q: And the MIC (Acinetobacter baumannii)?
A: Its MIC is 1 µg/mL (≈ 1.97 µM).

Q: What about the MIC (Klebsiella pneumoniae) of the same molecule?
A: The MIC was 8 µg/mL (≈ 15.8 µM).

Q: What about the MIC (Pseudomonas aeruginosa) of the same molecule?
A: The MIC was 8 µg/mL (≈ 15.8 µM).

Q: And the MIC (Escherichia coli [1])?
A: Its MIC is 0.5 µg/mL (≈ 0.985 µM).

Q: And the MIC (Escherichia coli [2])?
A: Its MIC is 0.015 µg/mL (≈ 0.0296 µM).

Q: What about the pIC50 [5] of the same molecule?
A: Its pIC50 is < 4.49.

Q: And the logD [3]?
A: Its logD is 0.9.

Q: With `O=C1COc2ccc(N3C(=O)O[C@H]4C[C@@H](NCCCn5c(=O)cnc6ccc(F)cc65)CC[C@@H]43)nc2N1` as the molecule, how does the IC50 at 24 h [4] read?
A: Its IC50 at 24 h is > 128 µg/mL.

Q: And the MIC (Acinetobacter baumannii)?
A: Its MIC is 0.12 µg/mL (≈ 0.236 µM).

Q: What about the MIC (Klebsiella pneumoniae) of the same molecule?
A: The MIC was 2 µg/mL (≈ 3.93 µM).

Q: What about the MIC (Pseudomonas aeruginosa) of the same molecule?
A: Its MIC is 1 µg/mL (≈ 1.97 µM).

Q: What about the MIC (Escherichia coli [1]) of the same molecule?
A: Its MIC is 0.12 µg/mL (≈ 0.236 µM).

Q: And the MIC (Escherichia coli [2])?
A: The MIC was 0.25 µg/mL (≈ 0.492 µM).

Q: And the MIC (Staphylococcus aureus)?
A: The MIC was 0.25 µg/mL (≈ 0.492 µM).

Q: What about the pIC50 [5] of the same molecule?
A: Its pIC50 is 4.89.

Q: What about the logD [3] of the same molecule?
A: The logD was 1.26.

Q: Which results are given for `COc1ccc2ccc(=O)n(CCN[C@@H]3CC[C@@H]4[C@@H](C3)OC(=O)N4c3ccc4c(n3)NC(=O)CO4)c2n1`?
A: IC50 at 24 h [4]: 64 µg/mL (≈ 126 µM); MIC (Acinetobacter baumannii): 0.06 µg/mL (≈ 0.118 µM); MIC (Klebsiella pneumoniae): 1 µg/mL (≈ 1.97 µM); MIC (Pseudomonas aeruginosa): 0.25 µg/mL (≈ 0.494 µM); MIC (Escherichia coli [1]): 0.03 µg/mL (≈ 0.0592 µM); MIC (Escherichia coli [2]): < 0.004 µg/mL; MIC (Staphylococcus aureus): 0.03 µg/mL (≈ 0.0592 µM); pIC50 [5]: 5.00; logD [3]: 1.8; fraction unbound [6]: 0.947

Q: For `COc1ccc2ccc(=O)n(CCN[C@H]3CC[C@H]4[C@H](C3)OC(=O)N4c3ccc4c(n3)NC(=O)CO4)c2c1`, which IC50 at 24 h [4] is on record?
A: Its IC50 at 24 h is > 64 µg/mL.

Q: And the MIC (Acinetobacter baumannii)?
A: The MIC was 0.06 µg/mL (≈ 0.119 µM).

Q: What about the MIC (Klebsiella pneumoniae) of the same molecule?
A: Its MIC is 8 µg/mL (≈ 15.8 µM).

Q: What about the MIC (Pseudomonas aeruginosa) of the same molecule?
A: The MIC was 4 µg/mL (≈ 7.91 µM).

Q: And the MIC (Escherichia coli [1])?
A: Its MIC is 0.25 µg/mL (≈ 0.495 µM).

Q: And the MIC (Escherichia coli [2])?
A: Its MIC is 0.03 µg/mL (≈ 0.0593 µM).

Q: And the MIC (Staphylococcus aureus)?
A: Its MIC is 0.008 µg/mL (≈ 0.0158 µM).

Q: What about the inhibition at 100 µM (hERG (KCNH2)) of the same molecule?
A: The inhibition at 100 µM was 85%.

Q: What about the logD [3] of the same molecule?
A: The logD was 2.25.

Q: Which IC50 at 24 h [4] does the source give for `N#Cc1cnc2ccc(=O)n(CCN[C@H]3CC[C@H]4[C@H](C3)OC(=O)N4c3ccc4c(n3)NC(=O)CS4)c2c1` here?
A: The IC50 at 24 h was > 128 µg/mL.

Q: And the MIC (Acinetobacter baumannii)?
A: The MIC was 0.12 µg/mL (≈ 0.232 µM).

Q: What about the MIC (Klebsiella pneumoniae) of the same molecule?
A: The MIC was 16 µg/mL (≈ 30.9 µM).

Q: What about the MIC (Pseudomonas aeruginosa) of the same molecule?
A: Its MIC is 2 µg/mL (≈ 3.86 µM).

Q: And the MIC (Escherichia coli [1])?
A: Its MIC is 0.5 µg/mL (≈ 0.966 µM).

Q: And the MIC (Escherichia coli [2])?
A: Its MIC is 0.004 µg/mL (≈ 0.00773 µM).

Q: What about the MIC (Staphylococcus aureus) of the same molecule?
A: Its MIC is 0.03 µg/mL (≈ 0.058 µM).

Q: What about the pIC50 [5] of the same molecule?
A: Its pIC50 is 4.70.

Q: What about the logD [3] of the same molecule?
A: Its logD is 1.42.

Q: For `N#Cc1ccc2c(ccc(=O)n2CCN[C@H]2CC[C@H]3[C@H](C2)OC(=O)N3c2ccc3c(n2)NC(=O)CO3)c1`, which MIC (Acinetobacter baumannii) is on record?
A: Its MIC is 8 µg/mL (≈ 16 µM).

Q: And the MIC (Klebsiella pneumoniae)?
A: The MIC was > 64 µg/mL.

Q: What about the MIC (Pseudomonas aeruginosa) of the same molecule?
A: Its MIC is > 64 µg/mL.

Q: What about the MIC (Escherichia coli [1]) of the same molecule?
A: The MIC was 4 µg/mL (≈ 7.99 µM).

Q: And the MIC (Escherichia coli [2])?
A: The MIC was 0.06 µg/mL (≈ 0.12 µM).

Q: And the MIC (Staphylococcus aureus)?
A: The MIC was 4 µg/mL (≈ 7.99 µM).

Q: And the inhibition at 100 µM (hERG (KCNH2))?
A: Its inhibition at 100 µM is 56%.

Q: What about the logD [3] of the same molecule?
A: The logD was 1.69.

Q: Which IC50 at 24 h [4] does the source give for `COc1cnc2ccc(=O)n(CCN[C@H]3CC[C@H]4[C@H](C3)OC(=O)N4c3ccc4c(n3)NC(=O)CO4)c2n1` here?
A: Its IC50 at 24 h is > 128 µg/mL.

Q: What about the MIC (Acinetobacter baumannii) of the same molecule?
A: Its MIC is 0.12 µg/mL (≈ 0.236 µM).

Q: What about the MIC (Klebsiella pneumoniae) of the same molecule?
A: The MIC was 2 µg/mL (≈ 3.94 µM).

Q: And the MIC (Pseudomonas aeruginosa)?
A: The MIC was 1 µg/mL (≈ 1.97 µM).

Q: And the MIC (Escherichia coli [1])?
A: Its MIC is 0.12 µg/mL (≈ 0.236 µM).

Q: And the MIC (Escherichia coli [2])?
A: The MIC was 0.004 µg/mL (≈ 0.00788 µM).

Q: And the MIC (Staphylococcus aureus)?
A: Its MIC is 0.015 µg/mL (≈ 0.0296 µM).

Q: And the pIC50 [5]?
A: The pIC50 was 5.05.

Q: And the logD [3]?
A: Its logD is 1.37.

Q: What does the source list for `N#Cc1cnc2ccc(=O)n(CCN[C@H]3CC[C@H]4[C@H](C3)OC(=O)N4c3ccc4c(n3)NC(=O)CO4)c2c1`?
A: pIC50 (DNA gyrase): 7.05; pIC50 [7]: 7.77; IC50 at 24 h [4]: > 128 µg/mL; MIC (Acinetobacter baumannii): 1 µg/mL (≈ 1.99 µM); MIC (Klebsiella pneumoniae): 8 µg/mL (≈ 16 µM); MIC (Pseudomonas aeruginosa): 2 µg/mL (≈ 3.99 µM); MIC (Escherichia coli [1]): 0.25 µg/mL (≈ 0.499 µM); MIC (Escherichia coli [2]): 0.004 µg/mL (≈ 0.00798 µM); MIC (Staphylococcus aureus): 0.06 µg/mL (≈ 0.12 µM); pIC50 [5]: < 4.00; logD [3]: 0.79; microsomal CLint [8]: 55 µL/min/mg; microsomal CLint [9]: < 3 µL/min/mg; fraction unbound [10]: > 0.3; pIC50 [11]: < 4.00

Q: Which results are given for `O=C(O)c1cn(C2CC2)c2cc(N3CCNCC3)c(F)cc2c1=O` [CIPROFLOXACIN]?
A: pIC50 [7]: 7.52; IC50 at 24 h [4]: > 128 µg/mL
